Assay results reported in patent US20150038707A1, “PROCESS FOR MAKING CGRP RECEPTOR ANTAGONISTS” (Merck Sharp & Dohme Corp., priority 2012, published 2015).

Tested on: Ae. aegypti mosquitoes
Assay: Compound residual life: spatial repellency (Example 9)
Format: in vivo
Protocol: The four compounds of formula I described in Example 2 were tested for spatial repellency (directed movement away from the chemical source without the insect making physical contact with the treated surface) at low doses on female Aedes aegypti (Thailand strain) mosquitoes. The spatial repellency response was determined by use of the spatial repellency assay disclosed by Grieco et al. in “A New Classification System for the Actions of IRS Chemicals Traditionally Used for Malaria Control” in Plos One, Issue 8 (2007) (available at www.plosone.org) which is incorporated herein by reference for all relevant and consistent purposes. The assay used was a cylindrical assembly that included a treatment chamber at one end and a control chamber at the other end. The treatment chamber included a netting strip (nylon organdy) that was treated with the insecticide of interest at the relevant dose. The treatment chamber and control chamber were connected by a clear cylinder and were separated from the clear cylinder by butterfly valves. Twenty (20) mosquitoes were introduced into the clear central chamber and the butterfly valves were opened after 30 seconds. After 10 minutes, the valves were closed and the number of mosquitoes in each chamber was counted.
The spatial repellency assay of Example 3 was used to determine the residual life of compound 1405 on Ae. aegypti mosquitoes. Compound 1405 (neat, suspended in acetone) was applied by pipette to the netting material and the netting material was maintained at room temperature. The assay was performed at 0, 24 and 48 hours.
Nets were treated and tested at times 0 hour, 24 hour and 48 hour. The nets were held at room temperature between tests. The spatial activity index (“SAI” which varies from −1 to 1 with zero (0) indicating no response) and spatial repellency (SR) were determined. SAI is the measure of the proportion of females in the control chamber over the treated chamber after correcting for the proportion of females in the control chamber.

[1] = Dose 2.5, Time 0 hr after net treatment
[2] = Dose 2.5, Time 24 hr after net treatment
[3] = Dose 25, Time 0 hr after net treatment
[4] = Dose 25, Time 24 hr after net treatment
[5] = Dose 25, Time 48 hr after net treatment

SMILES: CC1(C)C(C=C(Cl)C(F)(F)F)C1C(=O)OCc1ccc(F)c(C(F)(F)F)c1F (stereo not shown) [Compound 1405]
- SAI (SE) (spatial activity index, -1 to 1) [1]: 0.5(0.1)
- SR (spatial repellency) [1]: 21.5
- SAI (SE) (spatial activity index, -1 to 1) [2]: 0.3(0.1)
- SR (spatial repellency) [2]: 18
- SAI (SE) (spatial activity index, -1 to 1) [3]: 0.3(0.1)
- SR (spatial repellency) [3]: 21.5
- SAI (SE) (spatial activity index, -1 to 1) [4]: 0.5(0.1)
- SR (spatial repellency) [4]: 22.5
- SAI (SE) (spatial activity index, -1 to 1) [5]: 0.4(0.1)
- SR (spatial repellency) [5]: 22.5
